Where no end group is shown, it is not given here.
Columns and labels:
SIRT1 (sirtuin1) protein = experiment: Western blot of SIRT1 protein expression in palmitate-treated adipocytes (insulin metabolic disorder); type: cell-based; conditions: 3T3-L1 adipocytes, 25 μM palmitate 30 minutes; 0.2, 2, 20 μg/mL; 24 hours; Western blot (FIGS. 3a, 3b)
Description: An experiment was performed to determine whether the peptide complex prepared in Preparation Example 1 increases the phosphorylation of AMP-activated protein kinase (AMPK) and the expression level of SIRT1 (sirtuin1) protein in adipocytes in a state of insulin metabolic disorder induced by palmitate treatment.
When 3T3-L1 preadipocytes reached 80% confluence, they were seeded at 5×10^3 cells/well in a 96-well plate and used for the experiment. Two days after reaching confluence, the medium was replaced with a differentiation-inducing medium to induce the differentiation into adipocytes, and two days after the induction, the cells were cultured for 2 days in a medium containing 10% FBS and 10 μg/mL insulin, and then the medium was replaced with 10% FBS every 2 days until their differentiation into adipocytes. Once differentiation was complete, the medium was replaced with a serum-free medium and cultured for 4 hours to induce starvation. After 30 minutes of treatment with 25 μM palmitate, the peptide complexes were treated at concentrations of 0.2 μg/mL, 2 μg/mL, and 20 μg/mL and incubated for 24 hours. After dissolving by adding dissolution buffer, the proteins obtained by centrifugation at 4° C. and 12,000 rpm for 30 minutes were quantified using a BCA kit. […]

[1] = tested on: fibroblast growth factor 21 (FGF21) gene; experiment: RT-PCR of FGF21 gene expression in palmitate-treated adipocytes; type: cell-based; conditions: 3T3-L1 adipocytes, 25 μM palmitate 30 minutes; 0.2, 2, 20 μg/mL; 24 hours; RT-PCR vs palmitate control (PA) (FIGS. 4a, 4b)
Description: (§1) An experiment was performed to determine whether the peptide complex prepared in Preparation Example 1 increases the gene expression of longevity-related genes, FGF21, SIRT1, AMPK, and FOXO3A, in adipocytes in a state of insulin metabolic disorder induced by palmitate treatment.
(§2) When 3T3-L1 preadipocytes reached 80% confluence, they were seeded at 5×10^3 cells/well in a 96-well plate and used for the experiment. Two days after reaching confluence, the medium was replaced with differentiation-inducing medium to induce the differentiation into adipocytes, and two days after the induction, the medium was cultured for 2 days in a medium containing 10% FBS and 10 μg/mL insulin, and then the medium was replaced with 10% FBS every 2 days until their differentiation into adipocytes. After differentiation was complete, the medium was replaced with glucose-free medium, cultured for 16 hours, and then starvation was induced by culturing for 40 minutes in 100 μL KPPH buffer containing 2% BSA. After treating with 25 μM palmitate for 30 minutes, the peptide complexes were treated at concentrations of 0.2 μg/mL, 2 μg/mL, and 20 μg/mL, cultured for 24 hours, and RNA was extracted after 24 hours and RT-PCR was performed. […] Subsequently, the mRNA expression pattern was determined by agarose gel electrophoresis.

sirtuin 1 (SIRT1) gene = experiment: RT-PCR of SIRT1 gene expression in palmitate-treated adipocytes; type: cell-based; conditions: 3T3-L1 adipocytes, 25 μM palmitate 30 minutes; 0.2, 2, 20 μg/mL; 24 hours; RT-PCR vs palmitate control (PA) (FIGS. 4a, 4b)
Description: as §1, §2

FOXO3A gene = experiment: RT-PCR of FOXO3A gene expression in palmitate-treated adipocytes; type: cell-based; conditions: 3T3-L1 adipocytes, 25 μM palmitate 30 minutes; 0.2, 2, 20 μg/mL; 24 hours; RT-PCR vs palmitate control (PA) (FIGS. 4a, 4b)
Description: as §1, §2

SIRT1 = experiment: Western blot of SIRT1 protein expression in myocytes; type: cell-based, mouse; conditions: differentiated C2C12 myocytes; 0.2, 2, 20 μg/mL; 24 hours; Western blot (FIGS. 6a, 6b)
Description: An experiment was performed to determine whether the peptide complex increases the phosphorylation of AMPK and the expression of SIRT1 and FGF21 proteins in myocytes.
C2C12 cells, mouse-derived myoblasts, were cultured in DMEM medium containing 1% P/S and 2% BCS. When the cell confluency reached 70-80%, the cells were seeded in a 6-well culture plate. When the cell confluency in the 6-well culture plate reached 100%, the medium was replaced with differentiation medium (1% P/S, 2% horse serum), and thereafter, the differentiation medium (1% P/S, 2% horse serum) was replaced once every two days. Five days after the first replacement, the peptide complex was treated at concentrations of 0.2 μg/mL, 2 μg/mL, and 20 μg/mL and cultured for 24 hours. The group untreated with the peptide complex was used as the control. After dissolving by adding dissolution buffer thereto, the proteins obtained were centrifuged at 4° C. and 12,000 rpm for 30 minutes, and quantified using a BCA kit. The proteins were subjected to sodium dodecyl sulfate-polyacrylamide gel electrophoresis (SDS-PAGE) and then electrotransferred onto a membrane. The membrane with the proteins attached was blocked by treating it with 5% skim milk, and then the primary antibody was reacted overnight at 4° C. […]

peptide complex: prepared by mixing equal amounts of the peptide of SEQ ID NO: 1 (LKTRN) and the peptide of SEQ ID NO: 2 (KGSATGWMA) (also: mixture of two peptides)
increased: expression level of SIRT1 protein (SIRT1 (sirtuin1) protein) | expression of fibroblast growth factor 21 (FGF21) gene [1] | expression of sirtuin 1 (SIRT1) gene (sirtuin 1 (SIRT1) gene) | expression of FOXO3A gene (FOXO3A gene) | expression level of SIRT1 protein (SIRT1)
